Measured values published in US10442808B2, “Pyrazolo pyrimidine derivatives and their use as MALT1 inhbitors” (NOVARTIS AG, priority 2014, dated 2019).

Test system: IL2 promoter
Assay: Human IL2 promoter reporter gene assay (RGA) in Jurkat cells
Type: cell-based
Details: […], heading: IL2 reporter gene assay IC50, anti-CD28 mAb + PMA stimulation 5.5 h
Method: Human IL2 Promoter Reporter Gene Assay (RGA) in Jurkat Cells
The transfected Jurkat clone K22 290_H23 was propagated in RPMI 1640 supplemented with 10% heat inactivated fetal calf serum, 50 μM 2-mercaptoethanol and 1 mg/ml Geneticin. The cell concentration should not exceed 1×10e6/ml during culturing. The cells should not exceed passage 30. Prior to the assay the cells were washed and prepared to the concentration of 2×10e6 cells/ml.
Compound dilutions were made as 2×-concentrated solutions then diluted ½ by addition to cells. Two hundred and fifty μl of compound dilution and 250 μl of cells were mixed together in wells of a 96-deep well plate. Cells/compounds premix were incubated 30 min at 37° C. and 5% CO2 directly in the deep well plate.
After pre-incubation of cells with compounds, cells were stimulated with anti-CD28 mAb (clone 15E8) at 3 μg/ml+PMA at 1 μg/ml. Both co-stimulants were diluted in culture medium at a 10×-concentrated solution. 10 μl of co-stimulants were pipetted into the white 96-well plates and 100 μl of cell/compound mix was immediately added in duplicates. The cells were stimulated for 5.5 h at 37° C. and 5% CO2.
After cell stimulation, 50 μl of BriteLitePlus reagent (Perkin Elmer) was added to each well and the bioluminescence was measured with a Wallac EnVision reader (Perkin Elmer).

Q: For `COC[C@@H](C)c1c(NC(=O)Nc2cnc(-n3nccn3)c(C(F)(F)F)c2)cnc2cc(Cl)nn12` [Example 110, (S)-1-(6-(2H-1,2,3-triazol-2-yl)-5-(trifluoromethyl)pyridin-3-yl)-3-(2-chloro-7-(1-methoxypropan-2-yl)pyrazolo[1,5-a]pyrimidin-6-yl)urea], which IC50 is on record?
A: 41 nM

Q: For `COCC1(c2c(NC(=O)Nc3cnc(-n4nccn4)c(Cl)c3)cnc3cc(Cl)nn23)CC1` [Example 76, 1-(5-chloro-6-(2H-1,2,3-triazol-2-yl)pyridin-3-yl)-3-(2-chloro-7-(1-(methoxymethyl)cyclopropyl)pyrazolo[1,5-a]pyrimidin-6-yl)urea], which IC50 is on record?
A: 47 nM

Q: Which IC50 does the source give for `COC[C@H](C)c1c(NC(=O)Nc2cnc(-n3nccn3)c(Cl)c2)cnc2cc(Cl)nn12` [Example 45, (R)-1-(5-chloro-6-(2H-1,2,3-triazol-2-yl)pyridin-3-yl)-3-(2-chloro-7-(1-methoxypropan-2-yl)pyrazolo[1,5-a]pyrimidin-6-yl)urea] here?
A: 63 nM

Q: Which IC50 does the source give for `COc1ncc(NC(=O)Nc2cnc3cc(Cl)nn3c2-c2ccncc2)cc1Cl` [Example 69, 1-(5-chloro-6-methoxypyridin-3-yl)-3-(2-chloro-7-(pyridin-4-yl)pyrazolo[1,5-a]pyrimidin-6-yl)urea] here?
A: 206 nM

Q: With `Cc1cnn(-c2ncc(NC(=O)Nc3cnc4cc(Cl)nn4c3C(C)C)cc2Cl)n1` [Example 22, 1-(5-chloro-6-(4-methyl-2H-1,2,3-triazol-2-yl)pyridin-3-yl)-3-(2-chloro-7-isopropylpyrazolo[1,5-a]pyrimidin-6-yl)urea] as the compound, how does the IC50 read?
A: 214 nM

Q: Which IC50 does the source give for `COCC(OC)c1c(NC(=O)Nc2ccnc(C(F)(F)F)c2)cnc2cc(Cl)nn12` (stereo not drawn) [Example 109, 1-(2-chloro-7-(1,2-dimethoxyethyl)pyrazolo[1,5-a]pyrimidin-6-yl)-3-(2-(trifluoromethyl)pyridin-4-yl)urea] here?
A: 199 nM

Q: Which IC50 does the source give for `COC(c1ccccc1)c1c(NC(=O)Nc2cnc(-n3nccn3)c(Cl)c2)cnc2cc(Cl)nn12` (stereo not drawn) [Example 49, 1-(5-chloro-6-(2H-1,2,3-triazol-2-yl)pyridin-3-yl)-3-(2-chloro-7-(methoxy(phenyl)methyl)pyrazolo[1,5-a]pyrimidin-6-yl)urea] here?
A: 95 nM

Q: With `CO[C@H](c1c(NC(=O)Nc2cnc(-n3nccn3)c(Cl)c2)cnc2cc(Cl)nn12)[C@@H](C)OC` [Example 98, 1-(5-chloro-6-(2H-1,2,3-triazol-2-yl)pyridin-3-yl)-3-(2-chloro-7-((1R,2R)-1,2-dimethoxypropyl)pyrazolo[1,5-a]pyrimidin-6-yl)urea] as the compound, how does the IC50 read?
A: 115 nM

Q: `COCC(C)(OC)c1c(NC(=O)Nc2cnc(-n3nccn3)c(Cl)c2)cnc2cc(Cl)nn12` (stereo not drawn) [Example 81, 1-(5-chloro-6-(2H-1,2,3-triazol-2-yl)pyridin-3-yl)-3-(2-chloro-7-(1,2-dimethoxypropan-2-yl)pyrazolo[1,5-a]pyrimidin-6-yl)urea] was tested. Which IC50 did it give?
A: 157 nM

Q: How did the IC50 turn out when `CN(C)C(=O)c1c(NC(=O)Nc2cnc(-n3nccn3)c(Cl)c2)cnc2cc(Cl)nn12` [Example 70, 2-chloro-6-(3-(5-chloro-6-(2H-1,2,3-triazol-2-yl)pyridin-3-yl)ureido)-N,N-dimethylpyrazolo[1,5-a]pyrimidine-7-carboxamide] was run?
A: 63 nM

Q: Which IC50 does the source give for `CC1(c2c(NC(=O)Nc3ccnc(C(F)(F)F)c3)cnc3cc(Cl)nn23)CC1` [Example 17, 1-(2-chloro-7-(1-methylcyclopropyl)pyrazolo[1,5-a]pyrimidin-6-yl)-3-(2-(trifluoromethyl)pyridin-4-yl)urea] here?
A: 149 nM

Q: How did the IC50 turn out when `CO[C@@H](C)c1c(NC(=O)Nc2cncc(C#N)c2)cnc2cc(Cl)nn12` [Example 8, (S)-1-(2-chloro-7-(1-methoxyethyl)pyrazolo[1,5-a]pyrimidin-6-yl)-3-(5-cyanopyridin-3-yl)urea] was run?
A: 109 nM

Q: Which IC50 does the source give for `CC(C)c1c(NC(=O)Nc2ccc(-n3nccn3)c(Cl)c2)cnc2cc(Cl)nn12` [Example 20, l-(3-chloro-4-(2H-1,2,3-triazol-2-yl)phenyl)-3-(2-chloro-7-isopropylpyrazolo [1,5-a]pyrimidin-6-yl)urea] here?
A: 100 nM

Q: With `CO[C@@H](C)c1c(NC(=O)Nc2cnc(-n3nccn3)c(C(F)F)c2)cnc2cc(Cl)nn12` [Example 89, (S)-1-(2-chloro-7-(1-methoxyethyl)pyrazolo [1,5-a]pyrimidin-6-yl)-3-(5-(difluoromethyl)-6-(2H-1,2,3-triazol-2-yl)pyridin-3-yl)urea] as the compound, how does the IC50 read?
A: 25 nM

Q: `COCC1(c2c(NC(=O)Nc3ccnc(C(F)(F)F)c3)cnc3cc(Cl)nn23)CC1` [Example 77, 1-(2-chloro-7-(1-(methoxymethyl)cyclopropyl)pyrazolo[1,5-a]pyrimidin-6-yl)-3-(2-(trifluoromethyl)pyridin-4-yl)urea] was tested. Which IC50 did it give?
A: 46 nM

Q: With `C[C@@H](O)c1c(NC(=O)Nc2cnc(-n3nccn3)c(C(F)(F)F)c2)cnc2cc(Cl)nn12` [Example 113, (R)-1-(6-(2H-1,2,3-triazol-2-yl)-5-(trifluoromethyl)pyridin-3-yl)-3-(2-chloro-7-(1-hydroxyethyl)pyrazolo[1,5a]pyrimidin-6-yl)urea] as the compound, how does the IC50 read?
A: 78 nM

Q: With `CC(C)(c1c(NC(=O)Nc2ccnc(C(F)(F)F)c2)cnc2cc(Cl)nn12)C1CCOCC1` [Example 80, 1-(2-chloro-7-(2-(tetrahydro-2H-pyran-4-yl)propan-2-yl)pyrazolo[1,5-a]pyrimidin-6-yl)-3-(2-(trifluoromethyl)pyridin-4-yl)urea] as the compound, how does the IC50 read?
A: 46 nM

Q: `COc1ncc(NC(=O)Nc2cnc3cc(Cl)nn3c2C(C)C)cc1Cl` [Example 18, 1-(5-chloro-6-methoxypyridin-3-yl)-3-(2-chloro-7-isopropylpyrazolo[1,5-a]pyrimidin-6-yl)urea] was tested. Which IC50 did it give?
A: 245 nM

Q: With `Cc1ncn(-c2ccc(NC(=O)Nc3cnc4cc(Cl)nn4c3C(C)C)cc2C#N)n1` [Example 19, 1-(2-chloro-7-isopropylpyrazolo[1,5-a]pyrimidin-6-yl)-3-(3-cyano-4-(3-methyl-1H-1,2,4-triazol-1-yl)phenyl)urea] as the compound, how does the IC50 read?
A: 104 nM

Q: How did the IC50 turn out when `CC(C)c1c(NC(=O)Nc2cc(C(F)(F)F)ncc2-n2nccn2)cnc2cc(Cl)nn12` [Example 112, 1-(5-(2H-1,2,3-triazol-2-yl)-2-(trifluoromethyl)pyridin-4-yl)-3-(2-chloro-7-isopropylpyrazolo[1,5-a]pyrimidin-6-yl)urea] was run?
A: 58 nM

Q: `COCCC(OC)c1c(NC(=O)Nc2cnc(-n3nccn3)c(Cl)c2)cnc2cc(Cl)nn12` (stereo not drawn) [Example 64, 1-(5-chloro-6-(2H-1,2,3-triazol-2-yl)pyridin-3-yl)-3-(2-chloro-7-(1,3-dimethoxypropyl)pyrazolo[1,5-a]pyrimidin-6-yl)urea] was tested. Which IC50 did it give?
A: 32 nM

Q: With `COC(c1c(NC(=O)Nc2ccnc(C(F)(F)F)c2)cnc2cc(Cl)nn12)C1CCOCC1` (stereo not drawn) [Example 90, 1-(2-chloro-7-(methoxy(tetrahydro-2H-pyran-4-yl)methyl)pyrazolo[1,5-a]pyrimidin-6-yl)-3-(2-(trifluoromethyl)pyridin-4-yl)urea] as the compound, how does the IC50 read?
A: 14 nM

Q: `O=C(Nc1cnc(-n2nccn2)c(C(F)(F)F)c1)Nc1cnc2cc(Cl)nn2c1C1CCCO1` (stereo not drawn) [Example 54, 1-(6-(2H-1,2,3-triazol-2-yl)-5-(trifluoromethyl)pyridin-3-yl)-3-(2-chloro-7-(tetrahydrofuran-2-yl)pyrazolo[1,5-a]pyrimidin-6-yl)urea] was tested. Which IC50 did it give?
A: 266 nM

Q: Which IC50 does the source give for `CO[C@@H](c1c(NC(=O)Nc2cnc(-n3nccn3)c(Cl)c2)cnc2cc(Cl)nn12)C(C)C` [Example 5, (R)-1-(5-chloro-6-(2H-1,2,3-triazol-2-yl)pyridin-3-yl)-3-(2-chloro-7-(1-methoxy-2-methylpropyl)pyrazolo[1,5-a]pyrimidin-6-yl)urea] here?
A: 52 nM

Q: With `CC(C)(C)c1c(NC(=O)Nc2cnc(-n3nccn3)c(Cl)c2)cnc2cc(Cl)nn12` [Example 34, 1-(7-(tert-butyl)-2-chloropyrazolo[1,5-a]pyrimidin-6-yl)-3-(5-chloro-6-(2H-1,2,3-triazol-2-yl)pyridin-3-yl)urea] as the compound, how does the IC50 read?
A: 145 nM

Q: With `C[C@@H](OCc1ccccc1)c1c(NC(=O)Nc2cnc(-n3nccn3)c(C(F)(F)F)c2)cnc2cc(Cl)nn12` [Example 65, (R)-1-(6-(2H-1,2,3-triazol-2-yl)-5-(trifluoromethyl)pyridin-3-yl)-3-(7-(1-(benzyloxy)ethyl)-2-chloropyrazolo[1,5-a]pyrimidin-6-yl)urea] as the compound, how does the IC50 read?
A: 72 nM

Q: `CO[C@@H](C)c1c(NC(=O)Nc2cnc(-n3nccn3)c(C(F)(F)F)c2)cnc2cc(F)nn12` [Example 94, (S)-1-(6-(2H-1,2,3-triazol-2-yl)-5-(trifluoromethyl)pyridin-3-yl)-3-(2-fluoro-7-(1-methoxyethyl)pyrazolo[1,5-a]pyrimidin-6-yl)urea] was tested. Which IC50 did it give?
A: 484 nM

Q: Which IC50 does the source give for `CO[C@@H](C)c1c(NC(=O)Nc2ccnc(C(F)(F)F)c2)cnc2cc(F)nn12` [Example 7, (S)-1-(2-fluoro-7-(1-methoxyethyl)pyrazolo[1,5-a]pyrimidin-6-yl)-3-(2-(trifluoromethyl)pyridin-4-yl)urea] here?
A: 33 nM

Q: Which IC50 does the source give for `CO[C@@H](C)c1c(NC(=O)Nc2ccnc(C#N)c2)cnc2cc(Cl)nn12` [Example 105, (S)-1-(2-chloro-7-(1-methoxyelhyl)pyrazolo[1,5-a]pyrimidin-6-yl)-3-(2-cyanopyridin-4-yl)urea] here?
A: 112 nM

Q: Which IC50 does the source give for `O=C(Nc1cnc(-n2nccn2)c(C(F)(F)F)c1)Nc1cnc2cc(Cl)nn2c1-c1ccco1` [Example 63, 1-(6-(2H-1,2,3-triazol-2-yl)-5-(trifluoromethyl)pyridin-3-yl)-3-(2-chloro-7-(furan-2-yl)pyrazolo[1,5-a]pyrimidin-6-yl)urea] here?
A: 91 nM
